Assay results reported in BindingDB's records for doi:10.1021/jm0311442 (University of Newcastle, 2004).

Target: Cyclin-dependent kinase 1/G2/mitotic-specific cyclin-B (Marthasterias glacialis, UniProt P15206+Q9DGD3)
Experiment: Kinase Inhibition Assay

Chain of Cyclin-dependent kinase 1/G2/mitotic-specific cyclin-B (Q9DGD3 whole entry): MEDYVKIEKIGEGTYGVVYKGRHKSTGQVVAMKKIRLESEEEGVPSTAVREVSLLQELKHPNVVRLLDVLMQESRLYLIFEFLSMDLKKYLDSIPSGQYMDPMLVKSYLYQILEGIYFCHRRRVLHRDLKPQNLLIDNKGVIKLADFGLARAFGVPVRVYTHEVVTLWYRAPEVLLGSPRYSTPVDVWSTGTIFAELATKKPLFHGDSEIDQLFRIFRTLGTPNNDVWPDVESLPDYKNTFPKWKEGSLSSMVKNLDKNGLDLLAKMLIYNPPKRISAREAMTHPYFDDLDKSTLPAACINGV
Chain of Cyclin-dependent kinase 1/G2/mitotic-specific cyclin-B (P15206 whole entry): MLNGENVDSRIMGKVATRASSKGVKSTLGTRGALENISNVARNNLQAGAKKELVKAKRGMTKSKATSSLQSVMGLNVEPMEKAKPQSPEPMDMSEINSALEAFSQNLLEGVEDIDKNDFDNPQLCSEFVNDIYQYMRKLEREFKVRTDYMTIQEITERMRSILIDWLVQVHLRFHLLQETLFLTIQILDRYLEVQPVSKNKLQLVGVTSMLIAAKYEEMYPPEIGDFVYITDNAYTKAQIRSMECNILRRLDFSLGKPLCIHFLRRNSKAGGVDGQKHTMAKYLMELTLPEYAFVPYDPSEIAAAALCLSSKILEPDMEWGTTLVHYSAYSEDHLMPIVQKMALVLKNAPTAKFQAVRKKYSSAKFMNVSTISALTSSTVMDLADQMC

Compound `CS(=O)(=O)c1ccc(Nc2nc(OCC3CCCCC3)c3[nH]cnc3n2)cc1` [6-(cyclohexylmethoxy)-N-(4-methanesulfonylphenyl)-9H-purin-2-amine] has an IC50 of 80 nM.
